We go through 98 compounds from ChEMBL document CHEMBL3507680, “University of Dundee, Gates Library screen for HepG2 cell viability”.

Structures are written as SMILES.

A short description of the data set: Human HepG2 cell viability assay in 384 well format. Type of data set: toxicity, cell-based. On the set-up: dose 125 nL, time 70.5 hour; concentration not given beside the values. To be noted: HepG2 cells, read-out: Inhibition.
`Cc1nnc(SCC(=O)Nc2csc3nc(=O)c(C)nn23)s1`: the cytotoxicity at 70.5 h was 7.9%.

`O=C(Cc1cnc(-c2c(Cl)cccc2Cl)s1)N1CCOCC1`: the cytotoxicity at 70.5 h was -13.9%.

With `O=C(Cc1cnc(-c2c(Cl)cccc2Cl)s1)N1CCC2(CC1)OCCO2`, the cytotoxicity at 70.5 h was -14.1%.

Consider `CC(C)NC(=O)CNC(=O)N1CCc2c([nH]c3ccc(Cl)cc23)C1`, for which the cytotoxicity at 70.5 h is -7.52%.

For the compound `O=C(CNC(=O)N1CCc2c([nH]c3ccc(Cl)cc23)C1)NC1CCCC1`, the cytotoxicity at 70.5 h is -0.711%.

Turning to `NC(=O)C1CCN(C(=O)Cc2cnc(-c3c(Cl)cccc3Cl)s2)CC1`, the cytotoxicity at 70.5 h is -13.5%.

As for `CCc1nc2c(c(C)c(C)n2Cc2cccnc2)c(N)c1C`, the cytotoxicity at 70.5 h stood at 0.896%.

As to `O=C1CCCC2=C1C(c1ccc(Cl)cc1Cl)Nc1nonc1N2` (stereo not drawn), the cytotoxicity at 70.5 h is -1.65%.

For the compound `CC(=O)N1CCN(C(=O)Cc2cnc(-c3c(Cl)cccc3Cl)s2)CC1`, the cytotoxicity at 70.5 h was -13.6%.

Turning to `Cc1nn2c(NC(=O)CSc3nccn3C)csc2nc1=O`, the cytotoxicity at 70.5 h turned out to be 6.49%.

Consider `CC(C)CNC(=O)Cc1cnc(-n2cccc2)s1`, for which the cytotoxicity at 70.5 h was -18.5%.

On to `CC(C)NC(=O)c1nc(COc2ccc3c(c2)OCO3)no1`, for which the cytotoxicity at 70.5 h is -8.71%.

In the case of `O=C1CCCC2=C1C(c1cccc(F)c1F)Nc1nonc1N2` (stereo not drawn), the cytotoxicity at 70.5 h came to 1.2%.

Take `N#CC1=C(N)Nn2c(nnc2-c2ccccc2F)S1`: the cytotoxicity at 70.5 h is -36.2%.

With `Cc1nnc(SC2CCc3ccccc3NC2=O)n1C` (stereo not drawn), the cytotoxicity at 70.5 h is -23%.

Turning to `CN1CCN(CCCNC(=O)c2nc3ccccc3c(=O)[nH]2)CC1`, the cytotoxicity at 70.5 h was -19.4%.

`CC(C)CCNC(=O)Cc1cnc(-n2cccc2)s1`: the cytotoxicity at 70.5 h was -21%.

As to `Cc1c(C(=O)N(C)c2ccccc2)cccc1N(C)S(C)(=O)=O`, the cytotoxicity at 70.5 h is -7.07%.

Turning to `CC(C)[C@@H]1CN(CCCOc2ccc(F)cc2)C[C@H]1NS(C)(=O)=O`, the cytotoxicity at 70.5 h was -8.14%.

On to `O=C(c1cc(-c2cn[nH]c2)nc2cc(F)ccc12)N1CCS(=O)(=O)CC1`, for which the cytotoxicity at 70.5 h is -13.7%.

For `Cc1cc(C(F)(F)F)cc(=O)n1Cc1nc(C(C)C)no1`, the cytotoxicity at 70.5 h is -14.9%.

For `Cc1cccc(C)c1NC(=O)c1cccc(N(C)S(C)(=O)=O)c1C`, the cytotoxicity at 70.5 h was -14.1%.

`CC(=O)Nn1ccc2c(nnc3c(-c4ccc(F)cc4)cnn32)c1=O`: the cytotoxicity at 70.5 h is -20.1%.

As for `CSCCN1CCC(NC(=O)OC(C)(C)C)CC1`, the cytotoxicity at 70.5 h is -6.72%.

Take `CC1CCCN(CCCNC(=O)c2ccc(N(C)S(C)(=O)=O)cc2Cl)C1` (stereo not drawn): the cytotoxicity at 70.5 h is -2.33%.

In the case of `Cc1ccccc1CCC(=O)N1CCc2ncnc(NCCO)c2CC1`, the cytotoxicity at 70.5 h was -0.133%.

On to `O=C(NCc1nc(-c2ncccn2)no1)c1ccc(C2CCCO2)s1` (stereo not drawn), for which the cytotoxicity at 70.5 h worked out at 11.9%.

With `O=C(O)CCn1ccc2c(nnc3c(-c4ccc(F)cc4)cnn32)c1=O`, the cytotoxicity at 70.5 h was -24.9%.

As to `O=C(c1cc(Cn2ccc3ccccc32)[nH]n1)N1CCC[C@H]1CO`, the cytotoxicity at 70.5 h is -0.0597%.

Take `O=C(Cc1cnccn1)N1C[C@H]2CC[C@@H]1CN(Cc1cscn1)C2`: the cytotoxicity at 70.5 h was -12.8%.

`O=C1COc2cc(C(=O)NS(=O)(=O)c3ccc(F)c(F)c3)ccc2N1`: the cytotoxicity at 70.5 h is 10.9%.

Turning to `Cc1nc2ccnn2c(C)c1CCC(=O)N1CCN(CCO)CC1`, the cytotoxicity at 70.5 h was -9.84%.

Take `O=C1COc2cc(C(=O)NS(=O)(=O)c3cc(Cl)ccc3Cl)ccc2N1`: the cytotoxicity at 70.5 h was -8.05%.

As to `O=C1COc2cc(C(=O)NS(=O)(=O)c3ccc(F)cc3F)ccc2N1`, the cytotoxicity at 70.5 h is -13.6%.

For `Cc1cnc2c(S(=O)(=O)NCC3CCOC3)cccc2c1` (stereo not drawn), the cytotoxicity at 70.5 h was -10.2%.

`CN(C)c1cc(C(=O)N2CCCC2c2cnn(C)c2)ccn1` (stereo not drawn): the cytotoxicity at 70.5 h amounted to 4.19%.

Regarding `CCCN(CC)c1ccc(C(=O)N2CCCC2c2cnn(C)c2)cn1` (stereo not drawn), the cytotoxicity at 70.5 h was -5.94%.

With `CN(C)c1ccc(C(=O)N2CCCC2c2cnn(C)c2)cn1` (stereo not drawn), the cytotoxicity at 70.5 h was -2.8%.

Turning to `CCOc1ccc(C(=O)N2CCCC2c2cnn(C)c2)cn1` (stereo not drawn), the cytotoxicity at 70.5 h was -5.51%.

Turning to `CCc1ncc2c(n1)CN(CC(=O)Nc1ccncc1)CC2`, the cytotoxicity at 70.5 h was -3.06%.

`Cc1ncc(C(=O)NCCNC(=O)c2ccccc2)s1`: the cytotoxicity at 70.5 h was -6.97%.

Regarding `CC(C)(C)c1ncc(C(=O)NCCNc2ncccn2)s1`, the cytotoxicity at 70.5 h is -4.56%.

Consider `CC(=O)NCCNC(=O)c1cnc(C(C)(C)C)s1`, for which the cytotoxicity at 70.5 h was -8.27%.

For `CN(CCOc1cccc(F)c1)Cc1nc2c(cnn2C)c(=O)[nH]1`, the cytotoxicity at 70.5 h was -8.53%.

Regarding `CNC(=O)NC(=O)CCN1CCN(c2ccc(C(=O)OC)cc2)CC1C` (stereo not drawn), the cytotoxicity at 70.5 h is -9.55%.

In the case of `CC(=O)N1CCC(C(=O)NCc2cc[nH]n2)(c2ccccc2)CC1`, the cytotoxicity at 70.5 h was -5.74%.

Turning to `CC(C)(C)c1ncc(C(=O)NC(C(N)=O)c2ccccc2)s1` (stereo not drawn), the cytotoxicity at 70.5 h is 15.8%.

Regarding `O=C(NCc1cc[nH]n1)N1CCCC(N2CCCC2)C1` (stereo not drawn), the cytotoxicity at 70.5 h is -4.82%.

In the case of `COc1c(CNC2CCN(c3ccccn3)CC2)c(C(C)C)nn1C`, the cytotoxicity at 70.5 h came to 5.04%.

Take `CC(C(=O)N1CCCN(c2ccccc2C#N)CC1)n1cccn1` (stereo not drawn): the cytotoxicity at 70.5 h was -7.8%.

As to `CC(C(=O)N1CCCN(c2ccc(C#N)cc2)CC1)n1cccn1` (stereo not drawn), the cytotoxicity at 70.5 h is -3.9%.

With `Cc1cnn(C2CCCN(C(=O)Cc3c(C)nn(C)c3C)C2)c1` (stereo not drawn), the cytotoxicity at 70.5 h was 0.294%.

As to `Cc1ncc2c(n1)CN(CC(=O)Nc1nnc(C)s1)CC2`, the cytotoxicity at 70.5 h was -8.66%.

On to `Cc1ncc2c(n1)CN(CC(=O)Nc1cc(C)on1)CC2`, for which the cytotoxicity at 70.5 h is -5.61%.

Turning to `COC(=O)c1ccc(N2CCN(CC(=O)NC(N)=O)C(C)C2)cc1` (stereo not drawn), the cytotoxicity at 70.5 h is -3.82%.

Turning to `Cc1ccc(F)c(NS(=O)(=O)c2cc3c(c(C(=O)O)c2)OCCO3)c1`, the cytotoxicity at 70.5 h amounted to 2.59%.

With `O=C(O)c1cc(S(=O)(=O)Nc2ccc(F)cc2F)cc2c1OCCO2`, the cytotoxicity at 70.5 h was -2.86%.

`Cc1cc(F)ccc1NS(=O)(=O)c1cc2c(c(C(=O)O)c1)OCCO2`: the cytotoxicity at 70.5 h is -4.92%.

On to `Cn1ccnc1CN1CCCN(C(=O)c2ccc(O)nc2)CC1`, for which the cytotoxicity at 70.5 h was -4.72%.

For the compound `Cn1ccnc1CN1CCCN(C(=O)c2ccc3[nH]nnc3c2)CC1`, the cytotoxicity at 70.5 h is -4.07%.

On to `CCCc1n[nH]c(C2CN(C(=O)c3cccnc3N(C)C)CCO2)n1` (stereo not drawn), for which the cytotoxicity at 70.5 h is -0.878%.

In the case of `CN1CC(C(=O)NCCOc2ccc3c(c2)OCO3)CC1=O` (stereo not drawn), the cytotoxicity at 70.5 h is -1.1%.

As to `Cn1ncc2c(=O)[nH]c(CN3CCCC3CC(C)(C)C)nc21` (stereo not drawn), the cytotoxicity at 70.5 h was -4%.

For `Cn1ncc2c(=O)[nH]c(CN3CCCC3CCc3ccccc3)nc21` (stereo not drawn), the cytotoxicity at 70.5 h is -1.66%.

With `CCn1cc(NC(=O)C2CCN(CC(=O)NC3CCCC3)CC2)cn1`, the cytotoxicity at 70.5 h was -0.528%.

With `O=C(CCc1ccccc1F)N1CCC(Nc2cccnn2)CC1`, the cytotoxicity at 70.5 h is -1.09%.

As for `Cc1nc(C)n(CC2CCCN(c3ccc(C#N)cn3)C2)n1` (stereo not drawn), the cytotoxicity at 70.5 h is -3.58%.

In the case of `O=C(c1csc(-c2ccccn2)n1)N1CCCC1Cn1cccn1` (stereo not drawn), the cytotoxicity at 70.5 h is -2.56%.

With `O=C(c1csc(C2CC2)n1)N1CCCCC1Cn1cccn1` (stereo not drawn), the cytotoxicity at 70.5 h stood at 21.8%.

For `Cc1cc(NC(=O)CN(C)C2CCCN(c3cccnn3)C2)on1` (stereo not drawn), the cytotoxicity at 70.5 h is 23.1%.

In the case of `O=C(c1csc(-c2cnccn2)n1)N1CCCC1Cn1cccn1` (stereo not drawn), the cytotoxicity at 70.5 h is 2.23%.

`O=C(c1csc(-c2ncccn2)n1)N1CCCC1Cn1cccn1` (stereo not drawn): the cytotoxicity at 70.5 h came to 22.5%.

`O=C(CCOc1ccccc1F)N1CCCCC1Cn1cccn1` (stereo not drawn): the cytotoxicity at 70.5 h is -4.38%.

Turning to `Cc1nc(C)n(CC2CN(Cc3cc(C#N)ccc3F)CCO2)n1` (stereo not drawn), the cytotoxicity at 70.5 h was -1.96%.

As for `Cc1nc(C)n(CC2CN(c3ncccc3C#N)CCO2)n1` (stereo not drawn), the cytotoxicity at 70.5 h is -0.989%.

Consider `CN(CC(=O)NCc1ccccn1)C1CCCN(c2cccnn2)C1` (stereo not drawn), for which the cytotoxicity at 70.5 h was 0.301%.

With `Cc1nccn1C1CCCN(C(=O)c2ccc3nnc(C)n3c2)C1` (stereo not drawn), the cytotoxicity at 70.5 h amounted to 14.1%.

As to `CC(C)(C)C(=O)NCCC(=O)N1CCC(Nc2cccnn2)CC1`, the cytotoxicity at 70.5 h was -0.84%.

`Cc1cccc(-c2nc(CNC3CCc4nc(C)nn4C3)no2)c1` (stereo not drawn): the cytotoxicity at 70.5 h is -3.36%.

For the compound `CC(=O)N(Cc1ncc(C)o1)C1CCN(CCc2cccs2)C1` (stereo not drawn), the cytotoxicity at 70.5 h worked out at 17.8%.

In the case of `CCc1nc(CN(C(C)=O)C2CCN(CCc3cccs3)C2)no1` (stereo not drawn), the cytotoxicity at 70.5 h came to 13%.

`CC(C)(C)c1nc(CN2CCOC(Cn3cncn3)C2)cs1` (stereo not drawn): the cytotoxicity at 70.5 h was determined as 1.47%.

`CCOc1cc(C(=O)N2CCCC(c3noc(C(C)C)n3)C2)ccn1` (stereo not drawn): the cytotoxicity at 70.5 h was -3.39%.

In the case of `CC(C)c1nc(CN2CCOC(Cn3cncn3)C2)cs1` (stereo not drawn), the cytotoxicity at 70.5 h is -3.19%.

With `COCCN1CCC(CNC(=O)C2(c3cc(C)cc(C)c3)CC2)CC1`, the cytotoxicity at 70.5 h is -1.48%.

As to `CCc1cnc(CN(C(C)=O)C2CCN(CC3(O)CCCCC3)C2)o1` (stereo not drawn), the cytotoxicity at 70.5 h was 13.4%.

As for `COCCN1CCC(CNC(=O)C2(c3cccc(Cl)c3)CC2)C1` (stereo not drawn), the cytotoxicity at 70.5 h is -0.451%.

Take `COCCN1CCC(CNC(=O)C2(c3ccccc3)CCOCC2)C1` (stereo not drawn): the cytotoxicity at 70.5 h was -4.78%.

`COc1ccc(C2CCCN2Cc2ccc(S(=O)(=O)N(C)C)o2)cc1` (stereo not drawn): the cytotoxicity at 70.5 h is -1.88%.

As for `O=C(CN1CCCC1Cn1cncn1)NCCOc1ccccc1` (stereo not drawn), the cytotoxicity at 70.5 h was -2.53%.

`CN(C)S(=O)(=O)c1ccc(CN2CCCC2c2cccs2)o1` (stereo not drawn): the cytotoxicity at 70.5 h turned out to be 15.3%.

In the case of `Cn1cc(-c2nc(CN3CCOC(Cn4cncn4)C3)cs2)cn1` (stereo not drawn), the cytotoxicity at 70.5 h was determined as 1.83%.

Consider `CCOc1ccc(C(=O)N(Cc2cnn(C)c2)C(C)C)cc1OCC`, for which the cytotoxicity at 70.5 h is -3.25%.

Take `CCCN1CCC(CNC(=O)C2(c3cc(C)cc(C)c3)CCC2)C1` (stereo not drawn): the cytotoxicity at 70.5 h was found to be 16.9%.

As to `CCc1cnc(CN(C(C)=O)C2CCN(CCc3ccncc3)C2)o1` (stereo not drawn), the cytotoxicity at 70.5 h was -1.81%.

On to `COc1ccc(C2=CCN(C(=O)C3CCC3)CC2)cc1`, for which the cytotoxicity at 70.5 h was -1.58%.

As to `CN(C)C(=O)CCS(=O)(=O)Cc1cc(Cl)c2c(c1)OCO2`, the cytotoxicity at 70.5 h is -3.5%.

Take `COCCN1CCC(CNC(=O)C2(c3ccc(F)cc3)CCC2)CC1`: the cytotoxicity at 70.5 h is -0.878%.
